Experimental data taken from patent US20210147544A1, “METHODS AND COMPOSITIONS FOR TARGETED DELIVERY OF ACTIVE AGENTS AND IMMUNOMODULATORY AGENTS TO LYMPH NODES” (IMMUNOVACCINE TECHNOLOGIES INC., priority 2018, published 2021).
Blank lines part the entries; values can stand above or below the compound they belong to.

Tests used:
lymph node cells = type: in vivo, C57BL/6 mice; settings: group E: 20 mg/kg/day CPA in drinking water for seven days before FP/PolyI:C composition; vs group F
Experimental: Pathogen free, C57BL/6 mice, 6-8 weeks of age, were purchased from Charles River Laboratories (St. Constant, PQ) and housed according to institutional guidelines with water and food ad libitum under filter controlled air circulation.
(§1) Mice in group A (n=5) were injected in the right flank with 50 microliters of the CPA composition containing 0.04 milligrams of CPA and injected in the left flank with 50 microliters of the FP/DNA based PolyI:C polynucleotide composition containing 10 micrograms of FP and 20 micrograms of DNA based polyl:C polynucleotide adjuvant.
as §1, with “group B” for “group A”, “containing 0.4” for “containing 0.04”
Mice in group C (n=5) were injected in the right flank with 50 microliters of the CPA/FP/PolyI:C composition containing 0.04 milligrams of CPA and 10 micrograms of FP and 20 micrograms of DNA based polyI:C polynucleotide adjuvant.
Mice in group D (n=5) were injected in the right flank with 50 microliters of the CPA/FP/PolyI:C composition containing 0.4 milligrams of CPA and 10 micrograms of FP and 20 micrograms of DNA based polyI:C polynucleotide adjuvant. […]

[1] = Photographs of plasma, skin and draining lymph node after EVB injection; type: in vivo, C57B1/6 mice
Experimental: (§2) C57B1/6 mice (n=3 per time point) were injected subcutaneously on study day 0 with 1 mg of Evans Blue (EVB) dye formulated either in a composition of the invention (DPX, group 1) or in an aqueous solution (group 2). Control groups were injected subcutaneously with DPX not containing EVB (group 3) or not given an injection (group 4). DPX compositions were prepared according to the methods detailed in Example 1. The freeze-dried vial was reconstituted in Montanide® ISA 51 VG (SEPPIC, France). Cells were collected from the vaccine-draining lymph nodes (LN), blood, liver, and spleen from 2-3 mice of each group on study days 1, 2, 5, and 7, and the cells were stained to detect different cell populations by flow cytometry.

[2] = Evans Blue (EVB) positive cells in LN, blood, liver, spleen by flow cytometry; type: in vivo, C57B1/6 mice
Experimental: as §2
EVB (MW 960.81 g/mol) is a membrane impermeant dye with high affinity for serum albumin that can penetrate into non-viable cells or be actively internalized by phagocytic cells, such as macrophages and dendritic cells.

[3] = Body weights of C3 tumour mice during EPA treatment; type: in vivo; settings: all with mCPA (PO), oral EPA given with DPX-FP
Experimental: Mice (n=8 per group) were implanted with C3 cancer cells on study day 0. Mice in all treatment groups were treated with 0.4 mg metronomic cyclophosphamide (mCPA) daily for seven days through drinking water starting on study day 7 and 21 (oral administration: PO). One group was untreated as a control. One treatment group was treated with epacadostat (EPA) through oral gavage 6 mg/day for five days starting on study day 14 for a total EPA dose of 30 mg over 5 days. Mice were treated with a composition of the invention (DPX) containing either FP alone (DPX-FP) or FP in combination with EPA (DPX-FP/EPA, 1 mg EPA). DPX was administered by subcutaneous injection to the treatment groups on study day 14 and 28, for a total EPA dose of 2mg over […] in the group receiving DPX-FP/EPA. The DPX compositions were prepared according to the methods detailed in Example 1. All DPX-FP and DPX-FP/EPA formulations contained 20 micrograms of DNA based PolyI:C polynucleotide adjuvant. The freeze-dried vials were reconstituted in 0.7 mL of Montanide® ISA 51 VG (SEPPIC, France) to obtain a clear solution (FIG. 1; Panel D).

[4] = AlexaFluor488 (AF488) positive cells in LN, blood, liver, spleen by flow cytometry; type: in vivo, C57B1/6 mice
Experimental: as §2, with “mice (n=2-3” for “mice (n=3”, “with 0.1” for “with 1”, “of AlexaFluor488 hydrazide (AF488)” for “of Evans Blue (EVB)”, “containing AF488” for “containing EVB”
AF488 (MW 773.91 g/mol) is a membrane impermeant fluorescent dye that can be actively internalized by phagocytic cells, such as macrophages and dendritic cells.

[5] = 1 mg EVB s.c., days 1, 2, 5, 7, significance compared to group 3
[6] = by day 2, including CD3+ T cells
[7] = 0.1 mg AF488 s.c., days 1, 2, 5, 7, significance compared to group 3

Compound: O=P1(N(CCCl)CCCl)NCCCO1 (centres unmarked) [CPA, N,N-bis(2-chloroethyl)-1,3,2-oxazaphosphinan-2-amine 2-oxide]
- total lymph node cell counts (lymph node cells): significantly lower cell counts compared to group F

- blue colouration of skin, injection site and draining LN (FIG. 13) ([1]; 1 mg EVB s.c.): turned blue
- colour of plasma (FIG. 12) ([1]; days 1, 2, 5, and 7 after injection): dark blue
- macrophages and T cells EVB+ in the liver ([2]; by day 1-2): ~100%
- cells EVB+ in the spleen ([2]; by day 1-2, including CD3+ T cells): ~100%
- cells EVB+ in the LN [2, 6]: ~100%
- cells EVB+ in the blood [2, 6]: ~100%
Compound: Cc1cc(-c2ccc(/N=N/c3ccc4c(S(=O)(=O)O)cc(S(=O)(=O)O)c(N)c4c3O)c(C)c2)ccc1/N=N/c1ccc2c(S(=O)(=O)O)cc(S(=O)(=O)O)c(N)c2c1O [EVB in aqueous solution, Evans Blue]
- EVB+ CD11c+ dendritic cells in the liver ([2]; 1 mg EVB s.c.): a large number dendritic cells were EVB+ by day 2
- EVB+ CD11b+ cells in the LN (FIG. 10A) [2, 5]: significant number of EVB^+ CD11b^+ cells on all days tested
- EVB+ CD11b+ cells in the blood (FIG. 10D) [2, 5]: significant number of EVB^+ CD11b^+ cells on all days tested
- EVB+ CD11b+ cells in the liver (FIG. 10G) [2, 5]: significant number of EVB^+ CD11b^+ cells on all days tested
- EVB+ CD11b+ cells in the spleen (FIG. 10J) [2, 5]: significant number of EVB^+ CD11b^+ cells on all days tested
- EVB+ T cells in the LN (FIG. 10C) [2, 5]: significant number of EVB^+ T cells on all days tested
- EVB+ T cells in the blood (FIG. 10F) [2, 5]: significant number of EVB^+ T cells on all days tested
- EVB+ T cells in the liver (FIG. 10I) [2, 5]: significant number of EVB^+ T cells on all days tested
- EVB+ T cells in the spleen (FIG. 10L) [2, 5]: significant number of EVB^+ T cells on all days tested
- EVB+ dendritic cells in the LN (FIG. 10B) [2, 5]: significant number of EVB^+ dendritic cells on all days tested
- EVB+ dendritic cells in the blood (FIG. 10E) [2, 5]: significant number of EVB^+dendritic cells on all days tested
- EVB+ dendritic cells in the liver (FIG. 10H) [2, 5]: significant number of EVB^+ dendritic cells on days 2 and 7
- EVB+ dendritic cells in the spleen (FIG. 10K) [2, 5]: significant number of EVB^+dendritic cells on all days tested
- EVB release into and clearance from the LN (FIGS. 10A-C) ([2]; 1 mg EVB s.c., days 1 to 7): had still not been cleared from the LN by day 7
- EVB release into and clearance from the blood (FIGS. 10D-F) ([2]; 1 mg EVB s.c., days 1 to 7): still not been cleared from the blood by day 7
- EVB release into and clearance from the spleen (FIGS. 10J-L) ([2]; 1 mg EVB s.c., days 1 to 7): still saturated in CD11b+ macrophages and T cells by day 7
- saturation of cell types in the blood with EVB ([2]; 1 mg EVB s.c., days 1 to 7): CD11b+ macrophages and CD3+ T cells that were still nearly saturated on day 7

Compound: NS(=O)(=O)NCCNc1nonc1C(=NO)Nc1ccc(F)c(Br)c1 [oral EPA (PO), epacadostat]
- weight loss during treatment (body weights) [3]: significant weight loss during treatment

- AF488 release into the blood (FIGS. 11D-F) ([4]; 0.1 mg AF488 s.c.): quickly peaked at day 1
- circulating CD11b+ cells being AF488+ ([4]; blood, days 1-2): over 70%
Compound: AlexaFluor488 hydrazide [AF488 in aqueous solution]
- release of AF488 into the spleen (FIGS. 11G-I) ([4]; 0.1 mg AF488 s.c.): rapid and significant release of AF488 into the spleen in all cell types
- AF488+ CD11b+ cells in the LN (FIG. 11A) [4, 7]: significant number of AF488^+CD11b^+ cells on days 1 and 2
- AF488+ CD11b+ cells in the blood (FIG. 11D) [4, 7]: significant number of AF488^+ CD11b^+ cells on days 1 and 2
- AF488+ T cells in the LN (FIG. 11C) [4, 7]: significant number of AF488^+ T cells on day 1
- AF488+ T cells in the blood (FIG. 11F) [4, 7]: significant number of AF488^+ T cells on days 1 and 2
- AF488+ T cells in the liver (FIG. 11I) [4, 7]: significant number of AF488^+ T cells on all days collected
- AF488+ dendritic cells in the LN (FIG. 11B) [4, 7]: significant number of AF488^+ dendritic cells on day 1
- AF488+ dendritic cells in the blood (FIG. 11E) [4, 7]: significant number of AF488^+ dendritic cells on days 1 and 2
- AF488+ dendritic cells in the liver (FIG. 11H) [4, 7]: significant number of AF488^+ dendritic cells on days 1, 2, and 5
- AF488+ monocytes in the liver (FIG. 11G) [4, 7]: significant number of AF488^+ monocytes on days 1, 2, and 5
- AF488 release into and clearance from the LN (FIGS. 11A-C) ([4]; 0.1 mg AF488 s.c., days 1 to 7): quickly peaked at day 1 and AF488 was cleared by day 5-7
